The target in assay [1] is Isoleucine--tRNA ligase (Escherichia coli) (UniProt P00956). The assay is described as follows: Inhibitory concentration against isoleucyl-tRNA synthetase was determined by measuring decrease of the aminoacylation product [3H]- isoleucyl tRNA of Escherichia coli.
In assay [2] the target is Methionine--tRNA ligase (Escherichia coli) (UniProt P00959). Kind of assay: Inhibitory concentration against methionyl-tRNA synthetase was determined by measuring decrease of the aminoacylation product [35S]- methionyl tRNA of Escherichia coli.
Assay [3] addresses Isoleucine--tRNA ligase (Escherichia coli) (UniProt P00956). The assay is described as follows: Inhibitory concentration against isoleucyl-tRNA synthetase was determined by measuring decrease of the aminoacylation product [3H]- isoleucyl tRNA of Escherichia coli. The source holds these as a separate data set.
The nature of assay [4]: Inhibitory concentration against methionyl-tRNA synthetase was determined by measuring decrease of the aminoacylation product [35S]- methionyl tRNA of Escherichia coli.

Each structure is given as a SMILES string.

Methionine--tRNA ligase (Escherichia coli), sequence (P00959 whole entry, looked up): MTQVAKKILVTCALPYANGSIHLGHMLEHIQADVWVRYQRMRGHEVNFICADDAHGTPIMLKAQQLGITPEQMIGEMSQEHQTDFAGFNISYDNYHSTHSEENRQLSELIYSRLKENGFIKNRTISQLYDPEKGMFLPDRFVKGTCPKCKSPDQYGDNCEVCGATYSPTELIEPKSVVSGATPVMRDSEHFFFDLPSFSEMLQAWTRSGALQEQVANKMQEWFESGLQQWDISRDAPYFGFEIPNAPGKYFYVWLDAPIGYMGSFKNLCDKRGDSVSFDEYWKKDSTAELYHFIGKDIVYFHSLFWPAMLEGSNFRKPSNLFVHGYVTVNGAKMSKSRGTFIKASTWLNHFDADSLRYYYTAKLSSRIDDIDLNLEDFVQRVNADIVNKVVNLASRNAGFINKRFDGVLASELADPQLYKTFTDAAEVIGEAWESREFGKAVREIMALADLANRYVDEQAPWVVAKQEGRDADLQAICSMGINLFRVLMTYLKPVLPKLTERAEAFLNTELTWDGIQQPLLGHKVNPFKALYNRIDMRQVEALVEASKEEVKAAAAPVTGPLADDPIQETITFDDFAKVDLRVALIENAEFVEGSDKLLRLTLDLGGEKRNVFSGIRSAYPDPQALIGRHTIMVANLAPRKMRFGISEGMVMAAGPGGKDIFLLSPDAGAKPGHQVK
Isoleucine--tRNA ligase (Escherichia coli), sequence (P00956 whole entry, looked up): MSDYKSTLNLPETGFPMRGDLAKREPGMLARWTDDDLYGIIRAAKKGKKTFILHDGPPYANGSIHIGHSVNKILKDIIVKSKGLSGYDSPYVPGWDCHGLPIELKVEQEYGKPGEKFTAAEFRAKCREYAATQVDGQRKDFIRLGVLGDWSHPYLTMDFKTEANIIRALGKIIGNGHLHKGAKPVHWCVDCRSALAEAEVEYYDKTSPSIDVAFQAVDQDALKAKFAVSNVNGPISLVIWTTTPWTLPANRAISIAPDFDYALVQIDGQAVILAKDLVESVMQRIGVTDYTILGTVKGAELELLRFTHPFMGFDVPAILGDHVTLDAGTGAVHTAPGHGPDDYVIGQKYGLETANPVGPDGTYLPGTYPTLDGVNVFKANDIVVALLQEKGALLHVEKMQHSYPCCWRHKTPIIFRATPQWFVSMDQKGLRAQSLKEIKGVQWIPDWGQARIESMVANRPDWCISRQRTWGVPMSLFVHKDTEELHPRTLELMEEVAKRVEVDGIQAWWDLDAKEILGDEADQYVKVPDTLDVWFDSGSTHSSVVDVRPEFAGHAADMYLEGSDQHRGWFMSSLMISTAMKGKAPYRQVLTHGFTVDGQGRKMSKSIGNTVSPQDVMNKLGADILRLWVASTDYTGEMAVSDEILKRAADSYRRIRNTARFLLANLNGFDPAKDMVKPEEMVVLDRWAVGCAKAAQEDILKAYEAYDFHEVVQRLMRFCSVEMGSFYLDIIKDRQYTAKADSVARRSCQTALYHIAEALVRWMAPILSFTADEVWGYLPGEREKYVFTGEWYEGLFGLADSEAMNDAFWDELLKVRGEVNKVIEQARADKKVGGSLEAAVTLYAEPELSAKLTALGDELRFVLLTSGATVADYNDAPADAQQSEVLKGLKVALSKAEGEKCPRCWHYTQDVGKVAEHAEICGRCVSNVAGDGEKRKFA

As a reminder, the IC50 is the point on the concentration scale where inhibition reaches its midpoint. Low readings indicate greater potency in that assay, high ones weaker potency in that assay. For `CCC(C)[C@H](N)C(=O)OCC1CC(c2ccc(O)c(OC)c2)=NO1` (stereo partly drawn) [(S)-1-[3-(4-Hydroxy-3-methoxy-phenyl)-4,5-dihydro-isoxazol-5-ylmethoxycarbonyl]-2-methyl-butyl-ammonium], the IC50 in assay [1] came out at 79 µM.
In assay [2], `COc1cc(C2=N[C@H](COC(=O)[C@@H](N)CCSC)CO2)ccc1O` [(S)-1-[(S)-2-(4-Hydroxy-3-methoxy-phenyl)-4,5-dihydro-oxazol-4-ylmethoxycarbonyl]-3-methylsulfanyl-propyl-ammonium] yielded an IC50 of 33.5 µM.
The same measure, in the same setting: as for `COc1cc(C(=O)NCCOC(=O)[C@@H](N)CCSC)ccc1O` [(S)-1-[2-(4-Hydroxy-3-methoxy-benzoylamino)-ethoxycarbonyl]-3-methylsulfanyl-propyl-ammonium], the figure is 60 µM.
Take `CCC(C)[C@H](N)C(=O)OC[C@H]1COC(c2ccc(O)c(OC)c2)=N1` (stereo partly drawn) [(S)-1-[(R)-2-(4-Hydroxy-3-methoxy-phenyl)-4,5-dihydro-oxazol-4-ylmethoxycarbonyl]-2-methyl-butyl-ammonium]: in assay [3], the IC50 turned out to be 50 µM.
Consider `COc1ccc(CC(=O)NCCOC(=O)[C@@H](N)CCSC)cc1O` [(S)-1-{2-[2-(3-Hydroxy-4-methoxy-phenyl)-acetylamino]-ethoxycarbonyl}-3-methylsulfanyl-propyl-ammonium], for which half-maximal inhibition in assay [2] (IC50) was put at 164 µM.
With `CCC(C)[C@H](N)C(=O)OC[C@@H]1COC(c2ccc(O)c(OC)c2)=N1` (stereo partly drawn) [(S)-1-[(S)-2-(4-Hydroxy-3-methoxy-phenyl)-4,5-dihydro-oxazol-4-ylmethoxycarbonyl]-2-methyl-butyl-ammonium], the half-maximal inhibitory concentration (IC50) in assay [1] came to 38.6 µM.
Still for that read-out and setting: in the case of `CCC(C)[C@H](N)C(=O)OCCN(O)C(=O)c1ccc(O)c(OC)c1` (stereo partly drawn) [(S)-1-{2-[Hydroxy-(4-hydroxy-3-methoxy-benzoyl)-amino]-ethoxycarbonyl}-2-methyl-butyl-ammonium] it was 12.8 µM; in that of `CCC(C)[C@H](N)C(=O)OCCNC(=O)c1ccc(O)c(OC)c1` (stereo partly drawn) [(S)-1-[2-(4-Hydroxy-3-methoxy-benzoylamino)-ethoxycarbonyl]-2-methyl-butyl-ammonium], 64.4 µM; in that of `CCC(C)[C@H](N)C(=O)OCCNC(=O)Cc1ccc(OC)c(O)c1` (stereo partly drawn) [(S)-1-{2-[2-(3-Hydroxy-4-methoxy-phenyl)-acetylamino]-ethoxycarbonyl}-2-methyl-butyl-ammonium], 56.5 µM.
The same measure, in the same setting: as for `CCC(C)[C@H](N)C(=O)OCCNC(=O)Cc1ccc(O)c(OC)c1` (stereo partly drawn) [(S)-1-{2-[2-(4-Hydroxy-3-methoxy-phenyl)-acetylamino]-ethoxycarbonyl}-2-methyl-butyl-ammonium], the figure is 45 µM.
Turning to `COc1ccc(C2=NOC(COC(=O)[C@@H](N)CCSC)C2)cc1O` (stereo partly drawn) [(S)-1-[3-(3-Hydroxy-4-methoxy-phenyl)-4,5-dihydro-isoxazol-5-ylmethoxycarbonyl]-3-methylsulfanyl-propyl-ammonium], in assay [2], the 50% inhibitory concentration (IC50) was 47 µM.
The same measure, in the same setting: as for `COc1cc(C2=NOC(COC(=O)[C@@H](N)CCSC)C2)ccc1O` (stereo partly drawn) [(S)-1-[3-(4-Hydroxy-3-methoxy-phenyl)-4,5-dihydro-isoxazol-5-ylmethoxycarbonyl]-3-methylsulfanyl-propyl-ammonium], the figure is 58 µM.
For `COc1cc(C(=O)N(O)CCOC(=O)[C@@H](N)CCSC)ccc1O` [(S)-1-{2-[Hydroxy-(4-hydroxy-3-methoxy-benzoyl)-amino]-ethoxycarbonyl}-3-methylsulfanyl-propyl-ammonium], the IC50 in assay [2] turned out to be 32.5 µM.
Molecule `CCC(C)[C@H](N)C(=O)OCC1CC(c2ccc(OC)c(O)c2)=NO1` (stereo partly drawn) [(S)-1-[3-(3-Hydroxy-4-methoxy-phenyl)-4,5-dihydro-isoxazol-5-ylmethoxycarbonyl]-2-methyl-butyl-ammonium] returned an IC50 in assay [1] of 57.6 µM.
The same measure, in the same setting: in the case of `CCC(C)[C@H](N)C(=O)OCCNC(=O)c1ccc(OC)c(O)c1` (stereo partly drawn) [(S)-1-[2-(3-Hydroxy-4-methoxy-benzoylamino)-ethoxycarbonyl]-2-methyl-butyl-ammonium] it was 106 µM.
For the molecule `COc1cc(CC(=O)N(O)CCOC(=O)[C@@H](N)CCSC)ccc1O` [(S)-1-(2-{Hydroxy-[2-(4-hydroxy-3-methoxy-phenyl)-acetyl]-amino}-ethoxycarbonyl)-3-methylsulfanyl-propyl-ammonium], in assay [2], half-maximal inhibition (IC50) required 128 µM.
With `COc1ccc(CC(=O)N(O)CCOC(=O)[C@@H](N)CCSC)cc1O` [(S)-1-(2-{Hydroxy-[2-(3-hydroxy-4-methoxy-phenyl)-acetyl]-amino}-ethoxycarbonyl)-3-methylsulfanyl-propyl-ammonium], the IC50 in assay [2] stood at 87 µM.
In assay [4], `COc1cc(C2=N[C@@H](COC(=O)[C@@H](N)CCSC)CO2)ccc1O` [(S)-1-[(R)-2-(4-Hydroxy-3-methoxy-phenyl)-4,5-dihydro-oxazol-4-ylmethoxycarbonyl]-3-methylsulfanyl-propyl-ammonium] came in with an IC50 of 39 µM.
With `COc1ccc(C(=O)N(O)CCOC(=O)[C@@H](N)CCSC)cc1O` [(S)-1-{2-[Hydroxy-(3-hydroxy-4-methoxy-benzoyl)-amino]-ethoxycarbonyl}-3-methylsulfanyl-propyl-ammonium], it took 72 µM to reach half-maximal inhibition in assay [2] (IC50).
On to `CCC(C)[C@H](N)C(=O)OCCN(O)C(=O)Cc1ccc(O)c(OC)c1` (stereo partly drawn) [(S)-1-(2-{Hydroxy-[2-(4-hydroxy-3-methoxy-phenyl)-acetyl]-amino}-ethoxycarbonyl)-2-methyl-butyl-ammonium], for which the IC50 in assay [1] came to 228 µM.
On the same count and under the same terms, in the case of `CCC(C)[C@H](N)C(=O)OCCN(O)C(=O)Cc1ccc(OC)c(O)c1` (stereo partly drawn) [(S)-1-(2-{Hydroxy-[2-(3-hydroxy-4-methoxy-phenyl)-acetyl]-amino}-ethoxycarbonyl)-2-methyl-butyl-ammonium] it was 21 µM.
For the molecule `COc1cc(CC(=O)NCCOC(=O)[C@@H](N)CCSC)ccc1O` [(S)-1-{2-[2-(4-Hydroxy-3-methoxy-phenyl)-acetylamino]-ethoxycarbonyl}-3-methylsulfanyl-propyl-ammonium], in assay [2], 94 µM corresponded to half-maximal inhibition (IC50).
On the same count and under the same terms, as for `COc1ccc(C(=O)NCCOC(=O)[C@@H](N)CCSC)cc1O` [(S)-1-[2-(3-Hydroxy-4-methoxy-benzoylamino)-ethoxycarbonyl]-3-methylsulfanyl-propyl-ammonium], the figure is 78 µM.
As for `CCC(C)[C@H](N)C(=O)OCCN(O)C(=O)c1ccc(OC)c(O)c1` (stereo partly drawn) [(S)-1-{2-[Hydroxy-(3-hydroxy-4-methoxy-benzoyl)-amino]-ethoxycarbonyl}-2-methyl-butyl-ammonium], the IC50 in assay [1] stood at 4.5 µM.

For the origin of these results see BindingDB's records for doi:10.1016/s0960-894x(01)00096-8 (Seoul National University, 2001).
